Laboratory results: patent publication US20080026076A1 (priority 2003, published 2008)
Where “and” joins values, the source holds several entries; their conditions need not be identical. Equal entries are not always repeated. Marks after values point to notes of the source that are not given here.

Experiments:
[1] = system: rats with abdominal aortic constriction (AAC) or sham operated; assay: Blood pressure in caudal and carotid arteries of conscious rats, abdominal aortic constriction pressure overload model; type: in vivo, rat; settings: quercetin 1.5 g/kg chow, mean ± SEM
Description: In this procedure the abdominal aorta is constricted to increase the afterload on the heart and produce pressure overload. […] Rats consumed this diet for 7 days. On the 8th day, 5 rats were surgically modeled for pressure overload by constricting the abdominal aorta to a diameter of 0.63 mm with a Weck hemoclip. The other 5 rats were sham operated (anesthetized and the aorta exposed, but not constricted). […] Another group of 10 rats were placed on a standard diet with no supplement and treated in an identical fashion with 5 surgically modeled for pressure overload and 5 sham operated. […] Two weeks after surgery post-sacrifice morphometric measurements are obtained by measuring total heart weight, left ventricle weight, and calculating heart:body weight and left ventricle:body weight ratios to assess cardiac mass and cardiac hypertrophy. […] An identical experimental procedure as described in Example I is used with n=10 rats per group (S, AAC, SQ, AAC-Q) for a total of 40 rats. […] Rats subjected to this protocol have very high carotid blood pressure. Rats are anesthetized, a catheter is placed in the caudal and carotid arteries, rats are allowed to regain consciousness for 60 minutes and blood pressures are measured.

[2] = system: spontaneously hypertensive rats; assay: Blood pressure in spontaneously hypertensive (SH) rats; type: in vivo, rat
Description: As described herein, this strain is well documented to have normal blood pressure until about 5-6 weeks of age (Makita and Yasuda, 1990). After about 5-6 weeks, the rats suffer from steadily increasing blood pressure from about 6 weeks of age until peaking at about 12-15 weeks of age.
Blood pressure was measured in SHR and SHRQ rats by lightly anesthetizing the animals using ketamine/xylazine (75/3.75 mg/kg i.p.). Rats were prewarmed for 15 minutes on heated platform and blood pressure was measured using a Visitech BP 2000 blood pressure system. Pressure measurements are reported as the average of between 4 and 8 separate measurements taken over a 70 second period. All rats fully recovered within […] after receiving anesthesia.
Blood pressure blood pressure was measured for each group at 6, 7.5, 9 and 10 weeks. Dietary supplement was initiated at 5 weeks and maintained throughout the experiment.
In a separate experiment using SH rats (dietary supplement was likewise initiated at 5 weeks), blood pressure was measured at 17 weeks.

[3] = system: prehypertensive and stage 1 hypertensive human subjects; assay: Randomized, placebo-controlled, double-blind crossover trial: blood pressure; type: in vivo; settings: for Diastolic blood pressure, Endpoint / MAP, Endpoint / Systolic blood pressure, Endpoint: end of 4-week quercetin phase, 730 mg/day, mean ± SEM; for quercetin induced-lowering of systolic blood pressure: change from baseline
Description: Systemic markers of oxidant load also were examined as secondary outcomes to determine if reductions in blood pressure were associated with lower indices of oxidative stress. This study was approved by the University of Utah Human Use Review Committee, University of Utah Institutional Review Board, and written informed consent was obtained from each participant. Recruitment efforts in the greater Salt Lake City area targeted males and females with prehypertension (120-139 mmHg systolic/80-89 mmHg diastolic) and Stage 1 hypertension (140-159 mmHg systolic/90-99 mmHg diastolic) as defined by The 7th Report Of The Joint National Committee On Prevention, Detection, Evaluation, And Treatment Of High Blood Pressure (32). […] The secondary hypothesis was that quercetin-induced reductions in blood pressure would be associated with lower indices of systemic oxidant stress. […] A 14-day washout period separated the two phases. Subjects were randomly assigned to begin either the quercetin or the placebo phase first. […] Clinic visits were conducted on overnight-fasted subjects in the morning hours at the beginning and end of the placebo and quercetin supplementation phases. Subjects were instructed not to exercise prior to their appointments. […] Blood pressure was a primary outcome variable and was obtained at each clinic visit by a trained observer using an Omron random zero automatic blood pressure analyzer as previously described (35). Each participant sat quietly for 5-10 minutes, after which their arm was placed at heart level and blood pressure and pulse rate were determined at least three times in 3-5 minute intervals. If blood pressure varied among these determinations by more than 10 mmHg, three additional trials were performed. The accumulated measurements then were averaged to determine overall systolic and diastolic pressure and pulse rate for each subject.

[4] = Trial: body mass, heart rate, adverse effects; type: in vivo, human
Description: A 14-day washout period separated the two phases. Subjects were randomly assigned to begin either the quercetin or the placebo phase first. […] Clinic visits were conducted on overnight-fasted subjects in the morning hours at the beginning and end of the placebo and quercetin supplementation phases. Subjects were instructed not to exercise prior to their appointments. […] Blood pressure was a primary outcome variable and was obtained at each clinic visit by a trained observer using an Omron random zero automatic blood pressure analyzer as previously described (35). Each participant sat quietly for 5-10 minutes, after which their arm was placed at heart level and blood pressure and pulse rate were determined at least three times in 3-5 minute intervals. If blood pressure varied among these determinations by more than 10 mmHg, three additional trials were performed. The accumulated measurements then were averaged to determine overall systolic and diastolic pressure and pulse rate for each subject. Nearly 1000 patients were interviewed and screened for eligibility. […] From this initial screening, 204 were evaluated in more detail at a subsequent clinic visit to determine if all inclusion/exclusion criteria were met, and that blood pressure was within the study limits (FIG. 6). […]

normotensive individuals = settings: 1000 mg/day of quercetin for one month (Conquer et al.); cited from earlier work
[5] = system: mice with surgically induced abdominal aortic constriction; settings: oral, 5 day, 120 mg/kg/day (Wang et al., 1999); cited from earlier work
PKC = settings: cytosol and membrane fraction of cells from thyroid, brain, liver, fibroblasts; μM concentrations of quercetin; cited from earlier work
[6] = 1.5 g/kg chow quercetin from 5 weeks of age, measured at 6 to 10 weeks, vs control diet

Q: For O=c1c(O)c(-c2ccc(O)c(O)c2)oc2cc(O)cc(O)c12 [quercetin, 3,5,7,3′,4′-pentahydroxyflavone], which “Caudal MAP (mean arterial pressure)” value ([1]; AAC + Q: AAC rats) is on record?
A: 108.0 ± 7.1 mmHg

Q: And the “Diastolic Caudal blood pressure” value ([1]; AAC + Q: AAC rats)?
A: 104.7 ± 5.5^b mmHg

Q: And the “Gradient MAP” value ([1]; AAC + Q: AAC rats)?
A: 18.3 ± 4.4^b mmHg

Q: And the “Systolic Caudal blood pressure” value ([1]; AAC + Q: AAC rats)?
A: 118.3 ± 6.4 mmHg

Q: And the “Systolic Carotid blood pressure” value ([1]; AAC + Q: AAC rats, untreated AAC 201.4 ± 11.4)?
A: 158.8±10.3 mmHg and 158.8 ± 10.3^b mmHg

Q: And the “Carotid MAP (mean arterial pressure)” value ([1]; Sham + Q: sham operated rats)?
A: 113.5 ± 3.8^a mmHg

Q: What about the “Caudal MAP (mean arterial pressure)” value ([1]; Sham + Q: sham operated rats) of the same molecule?
A: 100.6 ± 3.0 mmHg

Q: What about the “Diastolic Carotid blood pressure” value ([1]; Sham + Q: sham operated rats) of the same molecule?
A: 106.2 ± 4.8^a mmHg

Q: And the “Diastolic Caudal blood pressure” value ([1]; Sham + Q: sham operated rats)?
A: 93.6 ± 3.2^a mmHg

Q: And the “Diastolic Gradient (carotid vs caudal)” value ([1]; Sham + Q: sham operated rats)?
A: 7.0 ± 2.9^a mmHg

Q: What about the “Gradient MAP” value ([1]; Sham + Q: sham operated rats) of the same molecule?
A: 7.2 ± 1.9^ab mmHg

Q: And the “Systolic Carotid blood pressure” value ([1]; Sham + Q: sham operated rats)?
A: 128.2 ± 1.9^a mmHg

Q: And the “Systolic Caudal blood pressure” value ([1]; Sham + Q: sham operated rats)?
A: 114.7 ± 3.2 mmHg

Q: What about the “Systolic Gradient (carotid vs caudal)” value ([1]; Sham + Q: sham operated rats) of the same molecule?
A: 7.3 ± 1.9^a mmHg

Q: What about the onset of hypertension ([2]; 1.5 g quercetin/kg diet from 5 weeks of age) of the same molecule?
A: delayed the onset of hypertension

Q: And the diastolic pressure [2, 6]?
A: did not show a statistically significant changed

Q: And the mean arterial pressure [2, 6]?
A: did not show a statistically significant changed

Q: And the systolic blood pressure [2, 6]?
A: decreased systolic blood pressure

Q: And the “blood pressure at 17 weeks” value ([2]; separate experiment, supplement from 5 weeks, control vs quercetin treated)?
A: No significant difference in blood pressure

Q: What about the “Diastolic blood pressure, Endpoint” value ([3]; prehypertensive (n=22), baseline 85 ± 1) of the same molecule?
A: 83 ± 2 mmHg

Q: And the “MAP, Endpoint” value ([3]; prehypertensive (n=22), baseline 101 ± 1)?
A: 98 ± 2 mmHg

Q: And the “Systolic blood pressure, Endpoint” value ([3]; prehypertensive (n=22), baseline 133 ± 2)?
A: 128 ± 3 mmHg

Q: What about the “quercetin induced-lowering of systolic blood pressure” value ([3]; prehypertensive) of the same molecule?
A: −5.2 mmHg

Q: And the “Diastolic blood pressure, Endpoint” value ([3]; stage 1 hypertensive (n=22), baseline 97 ± 1)?
A: 92 ± 2 mmHg

Q: What about the “MAP, Endpoint” value ([3]; stage 1 hypertensive (n=22), baseline 113 ± 1) of the same molecule?
A: 108 ± 2 mmHg

Q: And the “Systolic blood pressure, Endpoint” value ([3]; stage 1 hypertensive (n=22), baseline 145 ± 2)?
A: 138 ± 2 mmHg

Q: And the “quercetin induced-lowering of systolic blood pressure” value ([3]; stage 1 hypertensive)?
A: −7.2 mmHg

Q: What about the “carryover antihypertensive effect: mean arterial pressure at baseline of quercetin phase vs placebo phase” value ([3]; subjects that received quercetin treatment first) of the same molecule?
A: No differences were found

Q: And the adverse effects ([4]; 730 mg quercetin/day, 4 weeks, during the course of the study)?
A: No adverse effects

Q: What about the Heart rate ([4]; throughout the study (data not shown)) of the same molecule?
A: unchanged

Q: And the blood pressure (normotensive individuals)?
A: no changes in blood pressure

Q: And the plasma quercetin concentrations (normotensive individuals)?
A: 427 ± 89 ng/mL

Q: And the cardiac hypertrophy [5]?
A: prevented cardiac hypertrophy

Q: And the PKC activity (PKC)?
A: inhibition of PKC activity
